Data: PubChem BioAssay (NCI)
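All cell lines were grown in 96-well plates and treated with compound for 48 hours. The concentration for 50% growth inhibition is given as GI50. TGI is the concentration that stops growth completely.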

Assays:
Experiment in all cases: NCI anticancer screen, dose series, 48 h
K-562 leukemia = system: K-562 leukemia
OVCAR-5 ovarian = system: OVCAR-5 ovarian
SNB-75 CNS = system: SNB-75 CNS
HCC-2998 colon = system: HCC-2998 colon
NCI-H460 lung = system: NCI-H460 lung
HS 578T breast = system: HS 578T breast
SK-MEL-2 melanoma = system: SK-MEL-2 melanoma
RPMI-8226 leukemia = system: RPMI-8226 leukemia
786-0 renal = system: 786-0 renal
MDA-MB-435 = system: MDA-MB-435

Structure (SMILES)	TGI (K-562 leukemia) [µM]	TGI (OVCAR-5 ovarian) [µM]	TGI (SNB-75 CNS) [µM]	TGI (HCC-2998 colon) [µM]	TGI (NCI-H460 lung) [µM]	TGI (HS 578T breast) [µM]	TGI (SK-MEL-2 melanoma) [µM]	TGI (RPMI-8226 leukemia) [µM]	TGI (786-0 renal) [µM]	GI50 (K-562 leukemia) [µM]	GI50 (OVCAR-5 ovarian) [µM]	GI50 (SNB-75 CNS) [µM]	GI50 (NCI-H460 lung) [µM]	GI50 (HS 578T breast) [µM]	GI50 (MDA-MB-435) [µM]	TGI (MDA-MB-435) [µM]	GI50 (SK-MEL-2 melanoma) [µM]	GI50 (RPMI-8226 leukemia) [µM]	GI50 (786-0 renal) [µM]	GI50 (HCC-2998 colon) [µM]
CC(C)(C)OC(=O)N[C@H]1CC2(C=C(Cl)C(=O)C(Cl)=C2)OC1=O	7.41	38.6	41.1	31.8	56.2	75.5	41.7	19.8	28.6											
C[Si](C)(C)C1(Sc2ccccc2)SCCCS1	> 100	> 100	> 100	> 100	> 100		> 100	> 100	> 100											
COc1ccc(S(=O)(=O)NNS(C)(=O)=O)cc1	> 100		> 100	> 100			> 100	> 100	> 100											
CCCCCCN(CCCCCC)C(=O)Cc1c2n(c3ccccc13)Cc1ccccc1-2	> 100		> 100	> 100	> 100		> 100	> 100	> 100											
C[C@@H]1CCC2[C@@H](C)[C@@H](OCC(CO[C@H]3OC4O[C@@]5(C)CC[C@H]6[C@H](C)CCC([C@H]3C)[C@@]46OO5)OC(=O)CCC(=O)O)OC3O[C@@]4(C)CC[C@@H]1[C@]32OO4 (some centres not stated)	> 42.2	14.7	36.6		15.8	34.9	> 51.6	16.5	17.3	< 0.0479	< 0.01	16.1	< 0.0183	1.81	< 0.0115	13	4.22	< 0.01	< 0.0151	
CC(=O)[C@@]12O[C@@H]1CC1C3CCC4=CC(O)CCC4(C)C3CCC12C (some centres not stated)	> 100	88.3	50.8		> 100	90.2	> 100	97.1	> 100	55.5	27.9	18.7	70.8	27.9	> 100	> 100	> 100	21.6	> 100	
Cc1ccc(NC(=O)c2cc3cc(N=Nc4ccccc4C(=O)O)ccc3oc2=O)cc1	> 100		> 100		> 100			> 100	> 100											
C=C1NC(=O)C(C(C)CC)NC(=O)C2CSCC(NC(=O)CCC(=O)O)C(=O)NC(Cc3ccccc3)C(=O)NC(C)C(=O)NC(CC(C)CC)C(=O)NC(C(=O)NC(Cc3ccccc3)C(=O)N3CCCC3C(=O)N2)C(C)OC(=O)C(CO)NC(=O)C(C(O)COC)N(C)C(=O)C(C(C)C)NC(=O)C(CC(C)CC)NC1=O (configuration not stated)	> 6	> 6	> 6	> 6	> 6	> 6	> 6	> 6	> 6	0.0124	0.0327	0.0048	0.00439	0.0115			0.00485	0.0217	0.0358	0.0377
CCOC(=O)CC(=O)ON(C)C(C)=O	> 100	> 100		> 100	> 100		> 100	> 100	> 100											
c1ccc(COc2cccc3ccc[n+](Cc4ccccc4)c23)cc1	> 100	9.98	19.4	41.4	35.7		20.3	14.2	84.6											
O=C1c2cc3c(cc2-c2c1c1ccc(F)cc1c(=O)n2CCCNCCO)OCO3	1.36	1.23		0.272	0.204	2.68	0.716	0.571	0.776	0.0373	0.242		0.0219	0.381	0.0674	0.955	0.273	0.0577	0.0335	0.0537
C/C(=N\NC(=S)NC(CCC(=O)O)C(=O)O)c1ccccn1 (configuration not stated)	> 100	> 100	> 100	> 100	> 100		> 100	> 100	> 100											
CN(C)c1ccc(/C=C(\NC(=O)c2ccccc2)c2nc3ncncc3[nH]2)cc1	> 100	> 100		> 100			> 100		> 100											
CC(C)=Cc1cc(C(=O)Nc2ccc(Cl)c(Cl)c2)nc(N)n1	> 100	> 100	> 100	> 100	> 100		> 100	> 100	> 100											
C#CC1(O)CCC2C3CCc4cc(Oc5nc(F)nc(-c6c7ccccc7c7sc8ccccc8n67)n5)ccc4C3CC[C@@]21C (some centres not stated)	> 100	> 100	89.3	> 100	> 100		> 100	> 100	> 100											
CCN(CC)/C(SCc1ccccc1)=C(\C(Cl)=C(Cl)Cl)[N+](=O)[O-]	> 100	41.2		47.7	55.1		45.5	65.6	30.2							32				
COc1ccc([C@H]2[C@@H](F)C(=O)N2c2cc(OC)c(OC)c(OC)c2)cc1F	> 100	> 100	> 100	> 100	91.1	> 100	> 100	37.3	15.1	0.0383	0.423	> 100	0.356	0.295			0.303	0.055	0.0462	0.406
CCOC(=O)NC(=O)c1cn(CCCO)c(=O)[nH]c1=O	> 100	> 100	> 100	> 100	> 100		> 100	> 100	> 100											
Cc1ccc(S(=O)(=O)Nc2ccccc2C(=O)c2ccc(C)c(C)c2)cc1		> 100	> 100		> 100	> 100	> 100	> 100	> 100							> 100				
[Cl-].[La+3].[O-]/N=C(\c1ccccc1)c1ccccn1.[O-]/N=C(\c1ccccc1)c1ccccn1.[O-]/N=C(\c1ccccc1)c1ccccn1	> 100		82	> 100	> 69.2		> 100	> 100	> 100	84.2		27.8	15				37.1	62.1	36	> 100
